# Results: patent US11858941B2, “Heterocyclic and heteroaryl compounds for treating Huntington's disease” (PTC THERAPEUTICS, INC., priority 2018, dated 2024)
# System: Endogenous Huntingtin Protein
# Assay: Endogenous Huntingtin Protein Assay (Meso Scale Discovery ELISA-based electrochemiluminescence)
# Assay type: cell-based
# Conditions: MSD plates coated with MW1 (expanded polyglutamine) or MAB2166 capture antibody; lysates
# Description: Compounds of Formula (I) were tested using the Meso Scale Discovery (MSD) Assay provided in International Application No. PCT/US2016/066042, filed on Dec. 11, 2016 and claiming priority to United States Provisional Application U.S. 62/265,652 filed on Dec. 10, 2015, the entire contents of which are incorporated herein by reference.
# The Endogenous Huntingtin Protein assay used in Example 1 was developed using the ELISA-based MSD electrochemiluminescence assay platform.
# Endogenous Huntingtin Protein Assay
# Meso Scale Discovery (MSD) 96-well or 384-well plates were coated overnight at 4° C. with MW1 (expanded polyglutamine) or MAB2166 monoclonal antibody (for capture) at a concentration of 1 μg/mL in PBS (30 μL per well). Plates were then washed three times with 300 μL wash buffer (0.05% Tween-20 in PBS) and blocked (100 μL blocking buffer; 5% BSA in PBS) for 4-5 hours at room temperature with rotational shaking and then washed three times with wash buffer.
# Samples (25 μL) were transferred to the antibody-coated MSD plate and incubated overnight at 4° C. After removal of the lysates, the plate was washed three times with wash buffer, and 25 μL of #5656S (Cell signaling; rabbit monoclonal) secondary antibody (diluted to 0.25 μg/mL in 0.05% Tween-20 in blocking buffer) was added to each well and incubated with shaking for 1 Hour at room temperature. Following incubation with the secondary antibody, the wells were rinsed with wash buffer after which 25 μL of goat anti-rabbit SULFO TAG secondary detection antibody (required aspect of the MSD system) (diluted to 0.25 μg/mL in 0.05% Tween-20 in blocking buffer) was added to each well and incubated with shaking for 1 hour at room temperature. After rinsing three times with wash buffer, 150 μL of read buffer T with surfactant (MSD) were added to each empty well, and the plate was imaged on a SI 6000 imager (MSD) according to manufacturers' instructions provided for 96- or 384-well plates.
row,IC50 [nM],SMILES
1,1000 to 3000,"CC1(C)CC(n2nnc3cc(-c4ccc(-c5cnccn5)cc4O)nnc32)CC(C)(C)N1 [Cpd 60, 5-(pyrazin-2-yl)-2-[3-(2,2,6,6-tetramethylpiperidin-4-yl)-3H-[1,2,3]triazolo[4,5-c]pyridazin-6-yl]phenol]"
2,1000 to 3000,"CC1(C)CC(n2nnc3cc(-c4ccc(-c5ccccn5)cc4O)nnc32)CC(C)(C)N1 [Cpd 61, 5-(pyridin-2-yl)-2-[3-(2,2,6,6-tetramethylpiperidin-4-yl)-3H-[1,2,3]triazolo[4,5-c]pyridazin-6-yl]phenol]"
3,≤ 100,"Cn1cc(-c2cc(O)c(-c3cc4nnn(C5CC(C)(C)NC(C)(C)C5)c4nn3)cc2F)cn1 [Cpd 62, 4-fluoro-5-(1-methyl-1H-pyrazol-4-yl)-2-[3-(2,2,6,6-tetramethylpiperidin-4-yl)-3H-[1,2,3]triazolo[4,5-c]pyridazin-6-yl]phenol]"
4,≤ 100,"CC1(C)CC(n2nnc3cc(-c4ccc(-n5cncn5)cc4O)nnc32)CC(C)(C)N1 [Cpd 63, 2-[3-(2,2,6,6-tetramethylpiperidin-4-yl)-3H-[1,2,3]triazolo[4,5-c]pyridazin-6-yl]-5-(1H-1,2,4-triazol-1-yl)phenol]"
5,1000 to 3000,"CC1(C)CC(n2nnc3cc(-c4ccc(-n5cnnc5)cc4O)nnc32)CC(C)(C)N1 [Cpd 64, 2-[3-(2,2,6,6-tetramethylpiperidin-4-yl)-3H-[1,2,3]triazolo[4,5-c]pyridazin-6-yl]-5-(4H-1,2,4-triazol-4-yl)phenol]"
6,500 to 1000,"CC1(C)CC(n2nnc3cc(-c4ccc(-c5cccnc5)cc4O)nnc32)CC(C)(C)N1 [Cpd 65, 5-(pyridin-3-yl)-2-[3-(2,2,6,6-tetramethylpiperidin-4-yl)-3H-[1,2,3]triazolo[4,5-c]pyridazin-6-yl]phenol]"
7,≤ 100,"CC1(C)CC(n2nnc3cc(-c4ccc(-c5ccncc5)cc4O)nnc32)CC(C)(C)N1 [Cpd 66, 5-(pyridin-4-yl)-2-[3-(2,2,6,6-tetramethylpiperidin-4-yl)-3H-[1,2,3]triazolo[4,5-c]pyridazin-6-yl]phenol]"
8,≤ 100,"CC1(C)CC(n2nnc3cc(-c4ccc(-c5ccc(O)cn5)cc4O)nnc32)CC(C)(C)N1 [Cpd 67, 6-{3-hydroxy-4-[3-(2,2,6,6-tetramethylpiperidin-4-yl)-3H-[1,2,3]triazolo[4,5-c]pyridazin-6-yl]phenyl}pyridin-3-ol]"
9,≤ 100,"CC1(C)CC(n2nnc3cc(-c4ccc(-c5ncc(O)cn5)cc4O)nnc32)CC(C)(C)N1 [Cpd 68, 2-{3-hydroxy-4-[3-(2,2,6,6-tetramethylpiperidin-4-yl)-3H-[1,2,3]triazolo[4,5-c]pyridazin-6-yl]phenyl}pyrimidin-5-ol]"
10,≤ 100,"[2H]C([2H])([2H])n1cc(-c2ccc(-c3cc4nnn(C5CC(C)(C)NC(C)(C)C5)c4nn3)c(O)c2)cn1 [Cpd 69, 5-[1-(^2H3)methyl-1H-pyrazol-4-yl]-2-[3-(2,2,6,6-tetramethylpiperidin-4-yl)-3H-[1,2,3]triazolo[4,5-c]pyridazin-6-yl]phenol]"
11,≤ 100,"CC1(C)CC(n2nnc3cc(-c4ccc(-n5ccnc5)cc4O)nnc32)CC(C)(C)N1 [Cpd 70, 5-(1H-imidazol-1-yl)-2-[3-(2,2,6,6-tetramethylpiperidin-4-yl)-3H-[1,2,3]triazolo[4,5-c]pyridazin-6-yl]phenol]"
12,100 to 500,"CC1(C)CC(n2nnc3cc(-c4ccc(-c5cnn(C(F)F)c5)cc4O)nnc32)CC(C)(C)N1 [Cpd 71, 5-[1-(difluoromethyl)-1H-pyrazol-4-yl]-2-[3-(2,2,6,6-tetramethylpiperidin-4-yl)-3H-[1,2,3]triazolo[4,5-c]pyridazin-6-yl]phenol]"
13,100 to 500,"CC1(C)CC(n2nnc3cc(-c4ccc(-n5ccnn5)cc4O)nnc32)CC(C)(C)N1 [Cpd 72, 2-[3-(2,2,6,6-tetramethylpiperidin-4-yl)-3H-[1,2,3]triazolo[4,5-c]pyridazin-6-yl]-5-(1H-1,2,3-triazol-1-yl)phenol]"
14,≤ 100,"Cc1cc(-c2ccc(-c3cc4nnn(C5CC(C)(C)NC(C)(C)C5)c4nn3)c(O)c2)ccn1 [Cpd 73, 5-(2-methylpyridin-4-yl)-2-[3-(2,2,6,6-tetramethylpiperidin-4-yl)-3H-[1,2,3]triazolo[4,5-c]pyridazin-6-yl]phenol]"
15,100 to 500,"CC1(C)CC(n2nnc3cc(-c4ccc(-c5ccnc(C(F)(F)F)c5)cc4O)nnc32)CC(C)(C)N1 [Cpd 74, 2-[3-(2,2,6,6,-tetramethylpiperidin-4-yl)-3H-[1,2,3]triazolo[4,5-c]pyridazin-6-yl]-5-[2-(trifluoromethyl)pyridin-4-yl]phenol]"
16,100 to 500,"CC1(C)CC(n2nnc3cc(-c4ccc(-c5ccncn5)cc4O)nnc32)CC(C)(C)N1 [Cpd 75, 5-(pyrimidin-4-yl)-2-[3-(2,2,6,6-tetramethylpiperidin-4-yl)-3H-[1,2,3]triazolo[4,5-c]pyridazin-6-yl]phenol]"
17,100 to 500,"CC1(C)CC(n2nnc3cc(-c4ccc(-c5ccnnc5)cc4O)nnc32)CC(C)(C)N1 [Cpd 76, 5-(pyridazin-4-yl)-2-[3-(2,2,6,6-tetramethylpiperidin-4-yl)-3H-[1,2,3]triazolo[4,5-c]pyridazin-6-yl]phenol]"
18,≤ 100,"COc1cc(-c2ccc(-c3cc4nnn(C5CC(C)(C)NC(C)(C)C5)c4nn3)c(O)c2)ccn1 [Cpd 77, 5-(2-methoxypyridin-4-yl)-2-[3-(2,2,6,6-tetramethylpiperidin-4-yl)-3H-[1,2,3]triazolo[4,5-c]pyridazin-6-yl]phenol]"
19,1000 to 3000,"CC1(C)CC(n2nnc3cc(-c4ccc(-c5cncnc5)cc4O)nnc32)CC(C)(C)N1 [Cpd 78, 5-(pyrimidin-5-yl)-2-[3-(2,2,6,6-tetramethylpiperidin-4-yl)-3H-[1,2,3]triazolo[4,5-c]pyridazin-6-yl]phenol]"
20,500 to 1000,"CC1(C)CC(n2nnc3cc(-c4ccc(-c5ccc(O)nn5)cc4O)nnc32)CC(C)(C)N1 [Cpd 79, 6-{3-hydroxy-4-[3-(2,2,6,6-tetramethylpiperidin-4-yl)-3H-[1,2,3]triazolo[4,5-c]pyridazin-6-yl]phenyl}pyridazin-3-ol]"
21,100 to 500,"CC1(C)CC(n2nnc3cc(-c4ccc(-c5cc[nH]c5)cc4O)nnc32)CC(C)(C)N1 [Cpd 80, 5-(1H-pyrrol-3-yl)-2-[3-(2,2,6,6-tetramethylpiperidin-4-yl)-3H-[1,2,3]triazolo[4,5-c]pyridazin-6-yl]phenol]"
22,1000 to 3000,"CC1(C)CC(n2nnc3cc(-c4cc5cccnc5cc4O)nnc32)CC(C)(C)N1 [Cpd 81, 6-[3-(2,2,6,6-tetramethylpiperidin-4-yl)-3H-[1,2,3]triazolo[4,5-c]pyridazin-6-yl]quinolin-7-ol]"
23,100 to 500,"CC1(C)CC(n2nnc3cc(-c4cc5c(cc4O)/C(=N/O)CC5)nnc32)CC(C)(C)N1 [Cpd 82, (3E)-3-(hydroxyimino)-6-[3-(2,2,6,6-tetramethylpiperidin-4-yl)-3H-[1,2,3]triazolo[4,5-c]pyridazin-6-yl]-2,3-dihydro-1H-inden-5-ol]"
24,≤ 100,"CC1(C)CC(n2nnc3cc(-c4cc(Cl)c(-c5cn[nH]c5)cc4O)nnc32)CC(C)(C)N1 [Cpd 83, 4-chloro-5-(1H-pyrazol-4-yl)-2-[3-(2,2,6,6-tetramethylpiperidin-4-yl)-3H-[1,2,3]triazolo[4,5-c]pyridazin-6-yl]phenol]"
25,1000 to 3000,"CN(C)c1ccc(-c2ccc(-c3cc4nnn(C5CC(C)(C)NC(C)(C)C5)c4nn3)c(O)c2)cn1 [Cpd 84, 5-[6-(dimethylamino)pyridin-3-yl]-2-[3-(2,2,6,6-tetramethylpiperidin-4-yl)-3H-[1,2,3]triazolo[4,5-c]pyridazin-6-yl]phenol]"
26,1000 to 3000,"CC1(C)CC(n2nnc3cc(-c4ccc(-c5cnc6cnccn56)cc4O)nnc32)CC(C)(C)N1 [Cpd 85, 5-(imidazo[1,2-a]pyrazin-3-yl)-2-[3-(2,2,6,6-tetramethylpiperidin-4-yl)-3H-[1,2,3]triazolo[4,5-c]pyridazin-6-yl]phenol]"
27,1000 to 3000,"CC1(C)CC(n2nnc3cc(-c4ccc(-c5ccn(C6CC6)c(=O)c5)cc4O)nnc32)CC(C)(C)N1 [Cpd 86, 1-cyclopropyl-4-{3-hydroxy-4-[3-(2,2,6,6-tetramethylpiperidin-4-yl)-3H-[1,2,3]triazolo[4,5-c]pyridazin-6-yl]phenyl}pyridin-2(1H)-one]"
28,100 to 500,"CC1(C)CC(n2nnc3cc(-c4cc(F)c(-c5ccncc5)cc4O)nnc32)CC(C)(C)N1 [Cpd 87, 4-fluoro-5-(pyridin-4-yl)-2-[3-(2,2,6,6-tetramethylpiperidin-4-yl)-3H-[1,2,3]triazolo[4,5-c]pyridazin-6-yl]phenol]"
29,100 to 500,"CC1(C)CC(n2nnc3cc(-c4ccc(-c5ccn6cncc6c5)cc4O)nnc32)CC(C)(C)N1 [Cpd 88, 5-(imidazo[1,5-a]pyridin-7-yl)-2-[3-(2,2,6,6-tetramethylpiperidin-4-yl)-3H-[1,2,3]triazolo[4,5-c]pyridazin-6-yl]phenol]"
